Experimental data from patent publication US4810721A, “Pyrrolidineamide derivative having anti-prolyl endopeptidase” (Suntory Limited, priority 1986, dated 1989).

Tests used:
DDY strain male mice = test: Memory fixation test in mice (passive avoidance learning); format: in vivo; conditions: 5 mice, assessed 24 hours after learning, physiological saline control 47 sec.
Method: The measurement was conducted in accordance with the method described in Experientia 40, 506 (1984) with a slight modification made by the inventors. Several of the compounds of the invention were checked for their ability to enhance long-term memory fixation in the passive avoidance learning method using an apparatus which has an electrifiable grid floor and a refuge platform on one end of the floor. […] One hour after the administration, electric shocks were applied to the mice in a black box so that they would acquire passive avoidance learning.
The results of the test were assessed 24 hours after the learning in terms of the memory fixation acquired in the passive avoidance learning by measuring the residence time (latency) during which the mice stayed on the platform. The results between the test groups which received the test compound and the control group which received physiological saline in place of the test compound were compared.

prolyl endopeptidase = prolyl endopeptidase (Elizabethkingia meningoseptica, UniProt P27028); test: Anti-prolyl endopeptidase activity (inhibition of digestion of Z-glycyl-prolyl-β-naphthylamide); format: biochemical; conditions: amount for 50% inhibition; 0.0025M Z-glycyl-prolyl-β-naphthylamide (0.25 ml), pH 7.0, 35° C., 10 minutes, absorbance at 410 nm
Method: The method of Yoshimoto and Tsuru [T. Yoshimoto and D. Tsuru, Agric. Biol. Chem., 42, 2417 (1978)] was used to measure the anti-prolyl endopeptidase activities of several compounds of the present invention. A mixture of 0.0025M Z-glycyl-prolyl-β-naphthylamide (0.25 ml), 0.1M phosphate buffer (pH, 7.0; 0.99 ml) and a solution of a particular anti-prolyl endopeptidase compound (0.01 ml) was incubated in a test tube at 37° C. for 3 minutes. Thereafter, 0.1 ml of a solution of prolyl endopeptidase (0.2 U/ml) was added and the mixture was incubated at 35° C. for 10 minutes. After the reaction, 2.0 ml of Triton X-100 in 1M acetate buffer (pH, 4.0) was added to the reaction mixture so that the final concentration of the surfactant might be 10%. The mixture was left at room temperature for 15 minutes and the absorbance (a) at 410 nm was measured.
A sample of a blind test was prepared by using the buffer instead of the anti-prolyl endopeptidase compound and its absorbance (b) was also measured. The percentage of inhibition against prolyl endopeptidase was calculated by the formula: […]
and the amount of a specific compound need to achieve 50% inhibition (IC50) was determined.

prolyl endopeptidase, sequence (P27028 21-705): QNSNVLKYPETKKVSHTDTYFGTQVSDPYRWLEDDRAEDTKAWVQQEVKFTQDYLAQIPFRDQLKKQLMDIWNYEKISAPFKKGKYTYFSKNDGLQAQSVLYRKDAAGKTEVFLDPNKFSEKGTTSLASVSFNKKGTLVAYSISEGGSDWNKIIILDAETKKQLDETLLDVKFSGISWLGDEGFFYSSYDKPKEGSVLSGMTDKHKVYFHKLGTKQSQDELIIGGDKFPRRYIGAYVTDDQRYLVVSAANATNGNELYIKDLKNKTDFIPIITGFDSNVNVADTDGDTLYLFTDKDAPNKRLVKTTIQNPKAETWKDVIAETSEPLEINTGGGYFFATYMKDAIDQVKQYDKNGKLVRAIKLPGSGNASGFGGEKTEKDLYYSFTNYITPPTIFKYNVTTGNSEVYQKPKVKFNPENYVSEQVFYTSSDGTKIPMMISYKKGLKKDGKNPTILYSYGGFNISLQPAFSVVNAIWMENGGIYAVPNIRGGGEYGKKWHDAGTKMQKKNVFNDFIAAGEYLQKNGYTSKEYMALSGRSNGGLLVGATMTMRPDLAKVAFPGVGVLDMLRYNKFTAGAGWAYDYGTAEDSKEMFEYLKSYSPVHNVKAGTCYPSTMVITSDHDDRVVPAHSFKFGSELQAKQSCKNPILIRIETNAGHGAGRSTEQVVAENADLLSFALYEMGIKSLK

Structure (SMILES) | IC50 (prolyl endopeptidase) [μg/test tube] | Latency (DDY strain male mice; 1.0 mg/kg per os) [s] | Latency (DDY strain male mice; 3.0 mg/kg per os) [s] | Latency (DDY strain male mice; 0.3 mg/kg per os) [s]
O=C([C@@H]1C[C@@H](O)CN1C(=O)CCCc1ccccc1)N1CCCC1 [SUAM 14432, N-[N-(4-phenylbutanoyl)-trans-4-hydroxy-L-prolyl]pyrrolidine] | 0.07 | 76 | 153 | –
O=C([C@@H]1C[C@H](O)CN1C(=O)CCCc1ccccc1)N1CCCC1 [SUAM 14496, N-[N-(4-phenylbutanoyl)-cis-4-hydroxy-L-prolyl]pyrrolidine] | 0.10 | 138 | 135 | 147
O=C(O[C@@H]1C[C@@H](C(=O)N2CCCC2)N(C(=O)CCCc2ccccc2)C1)c1ccccc1 [SUAM 14498] | 0.30 | – | – | –
O=C(O[C@@H]1C[C@@H](C(=O)N2CCCC2)N(C(=O)CCCc2ccccc2)C1)c1ccc(Cl)cc1 [SUAM 14499, N-[N-(4-phenylbutanoyl)-trans-4-(4-chlorobenzoyloxy)-L-prolyl]pyrrolidine] | 0.20 | – | – | –
O=C(O[C@H]1C[C@@H](C(=O)N2CCCC2)N(C(=O)CCCc2ccccc2)C1)c1ccc(Cl)cc1 [SUAM 14503, N-[N-(4-phenylbutanoyl)-cis-4-(4-chlorobenzoyloxy)-L-prolyl]pyrrolidine] | 0.06 | – | – | –
CC(=O)O[C@@H]1C[C@@H](C(=O)N2CCCC2)N(C(=O)CCCc2ccccc2)C1 [SUAM 14506, N-[N-(4-phenylbutanoyl)-trans-4-acetoxy-L-prolyl]pyrrolidine] | 0.03 | – | 64 | –
CC(=O)O[C@H]1C[C@@H](C(=O)N2CCCC2)N(C(=O)CCCc2ccccc2)C1 [SUAM 14507, N-[N-(4-phenylbutanoyl)-cis-4-acetoxy-L-prolyl]pyrrolidine] | 0.10 | – | 53 | –

The next lines start with results.

IC50 (prolyl endopeptidase) [μg/test tube] | Structure (SMILES) | Latency (DDY strain male mice; 1.0 mg/kg per os) [s] | Latency (DDY strain male mice; 3.0 mg/kg per os) [s] | Latency (DDY strain male mice; 0.3 mg/kg per os) [s]
0.01 | COc1ccc(O[C@H]2C[C@@H](C(=O)N3CCCC3)N(C(=O)CCCc3ccccc3)C2)cc1 [SUAM 14441, N-[N-(4-phenylbutanoyl)-cis-4-(4-methoxyphenoxy)-L-prolyl]pyrrolidine] | 101 | – | –
0.008 | COc1ccccc1O[C@H]1C[C@@H](C(=O)N2CCCC2)N(C(=O)CCCc2ccccc2)C1 [SUAM 14467, N-[N-(4-phenylbutanoyl)-cis-4-(2-methoxyphenoxy)-L-prolyl]pyrrolidine] | – | – | –
0.03 | COc1cccc(O[C@H]2C[C@@H](C(=O)N3CCCC3)N(C(=O)CCCc3ccccc3)C2)c1 [SUAM 14468, N-[N-(4-phenylbutanoyl)-cis-4-(3-methoxyphenoxy)-L-prolyl]pyrrolidine] | – | – | –
0.04 | COc1ccc(O[C@H]2C[C@@H](C(=O)N3CCCC3)N(C(=O)OCc3ccccc3)C2)cc1 [SUAM 14491, N-[N-benzyloxycarbonyl-cis-4-(4-methoxyphenoxy)-L-prolyl]pyrrolidine] | – | – | –
0.15 | COc1ccc(C(=O)O[C@@H]2C[C@@H](C(=O)N3CCCC3)N(C(=O)CCCc3ccccc3)C2)cc1 [SUAM 14497, N-[N-4-phenylbutanoyl)-trans-4-(4-methoxybenzoyloxy-L-prolyl]pyrrolidine] | – | – | –
0.04 | COc1ccc(C(=O)O[C@H]2C[C@@H](C(=O)N3CCCC3)N(C(=O)CCCc3ccccc3)C2)cc1 [SUAM 14501] | – | – | –
0.06 | O=C(O[C@H]1C[C@@H](C(=O)N2CCCC2)N(C(=O)CCCc2ccccc2)C1)c1ccccc1 [SUAM 14502, N-[N-(4-phenylbutanoyl)-cis-4-benzoyloxy-L-prolyl]pyrrolidine] | – | – | –
0.02 | O=C([C@@H]1C[C@H](Oc2ccccc2)CN1C(=O)CCCc1ccccc1)N1CCCC1 [SUAM 14504, N-[N-(4-phenylbutanoyl)-cis-4-phenoxy-L-prolyl]pyrrolidine] | – | – | –
0.04 | O=C([C@@H]1C[C@H](Oc2ccc(Cl)cc2)CN1C(=O)CCCc1ccccc1)N1CCCC1 [SUAM 14508, N-[N-(4-phenylbutanoyl)-cis-4-(4-chlorophenoxy)-L-prolyl]pyrrolidine] | – | – | –
0.03 | Cc1ccc(O[C@H]2C[C@@H](C(=O)N3CCCC3)N(C(=O)CCCc3ccccc3)C2)cc1 [SUAM 14509, N-[N-(4-phenylbutanoyl)-cis-4-(4-methylphenoxy)-L-prolyl]pyrrolidine] | – | 95 | –
